Test results as given in PMC6121307, “Cloning and Functional Characterisation of the Duplicated RDL Subunits from the Pea Aphid, Acyrthosiphon pisum” (International Journal of Molecular Sciences, 2018).
Where two headings read alike, the source gives them in different places.

Assays:
Apisum RDL1ad [1] = target: T1, Apisum RDL1ad (Acyrthosiphon pisum, UniProt A0A385J708); experiment: Antagonistic actions of neonicotinoids on GABA-induced currents, two-electrode voltage-clamp in X. laevis oocytes; type: cell-based; details: for activity at 100 µM: read-out: % of GABA Response with 100 μM neonicotinoid
T1 sequence (A0A385J708 33-567): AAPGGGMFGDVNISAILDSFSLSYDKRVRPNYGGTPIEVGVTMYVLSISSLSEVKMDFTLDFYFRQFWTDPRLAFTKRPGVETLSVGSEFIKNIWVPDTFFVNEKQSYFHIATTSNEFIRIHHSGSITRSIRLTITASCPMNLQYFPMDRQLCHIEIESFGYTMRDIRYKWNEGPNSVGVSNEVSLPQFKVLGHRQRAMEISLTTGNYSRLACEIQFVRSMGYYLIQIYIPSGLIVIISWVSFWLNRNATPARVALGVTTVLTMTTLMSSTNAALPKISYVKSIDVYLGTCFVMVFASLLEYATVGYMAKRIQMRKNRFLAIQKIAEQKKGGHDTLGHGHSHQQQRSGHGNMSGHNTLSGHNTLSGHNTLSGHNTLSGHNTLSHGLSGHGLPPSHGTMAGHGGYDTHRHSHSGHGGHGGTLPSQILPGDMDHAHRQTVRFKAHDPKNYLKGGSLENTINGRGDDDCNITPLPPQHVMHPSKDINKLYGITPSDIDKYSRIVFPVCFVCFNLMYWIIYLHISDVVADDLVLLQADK
Description: (§1) Functional studies of Apisum RDL1ad, Apisum RDL1bd and Apisum RDL2b variant 1 were performed using the X. laevis expression system and two-electrode voltage-clamp electrophysiology. Stage V and VI X. laevis oocytes were harvested and rinsed with Ca^2+ free solution (82 mM NaCl, 2 mM KCl, 2 mM MgCl2, 5 mM HEPES, pH 7.4), before defolliculating with 1 mg/mL type IA collagenase (Sigma, St. Louis, MO, USA) in Ca^2+ free solution. Defolliculated oocytes were injected with 2.3 ng (23 nL) Apisum Rdl plasmid DNA into the nucleus of the oocyte and stored in standard Barth’s solution (supplemented with 50 µg/mL neomycin and 10 µg/mL penicillin/streptomycin) at 17.5 °C.
(§2) Oocytes 1–7 days post-injection were placed in a recording chamber and clamped at −60 mV with 3 M KCl filled borosilicate glass electrodes (resistance 0.5–5 MΩ) and an Oocyte Clamp OC-725C amplifier (Warner Instruments, CT, USA). Responses were recorded on a flatbed chart recorder (Kipp & Zonen BD-11E, Delft, The Netherlands). Oocytes were perfused with standard oocyte saline (SOS; 100 mM NaCl, 2 mM KCl, 1.8 mM CaCl2, 1 mM MgCl2, 5 mM HEPES, pH 7.6) at a flow rate of 10 mL/min. Oocytes were selected for experiments if stable after three or more consecutive challenges of GABA at EC50 concentration. The GABA EC50 concentration was determined using GABA concentration response curves, which were generated by challenging oocytes to increasing concentrations of GABA in SOS, with 3 min between challenges. Curves were calculated by normalising the GABA current responses to maximal responses induced by GABA before and after application.
(§3) Insecticides were initially diluted in dimethylsulphoxide (DMSO), before diluting to final concentrations in SOS.
(§4) For measuring the antagonistic actions of neonicotinoids, oocytes were initially incubated with a perfusion of the neonicotinoid in SOS for 6 min, before challenging with a combination of neonicotinoid and either the respective EC50 GABA concentration or 1 mM GABA.

Apisum RDL1bd [2] = target: T2, Apisum RDL1bd (Acyrthosiphon pisum, UniProt A0A385J708); experiment: as above; type: cell-based; details: for effect on responses induced by GABA: 100 μM neonicotinoid
T2 sequence (A0A385J708 33-567): T1 sequence (A0A385J708 33-567)
Description: as §1, §2, §3, §4

Apisum RDL2b var 1 = experiment: as above; type: cell-based, Acyrthosiphon pisum
Description: as §1
as §2, with “The GABA EC50 concentration was determined using GABA concentration response curves, which were generated by challenging oocytes to increasing concentrations of GABA in SOS, with 3 min between challenges.” left out, “application. […]” for “application.”

Apisum RDL1ad [3] = target: T1, Apisum RDL1ad; experiment: Fipronil inhibition of GABA EC50 induced currents, two-electrode voltage-clamp in X. laevis oocytes; type: cell-based; details: GABA at EC50 (20 μM); 3 min pre-incubation; mean ± SEM
Description: as §1, §2
(§5) Insecticides were initially diluted in dimethylsulphoxide (DMSO), before diluting to final concentrations in SOS. […]
(§6) Data are presented as mean ± SEM of individual oocytes from three or more separate frogs. […] Statistical significance was determined as p < 0.05, performed using one-way ANOVA (Graphpad Software, CA, USA).

Apisum RDL1bd [4] = target: T2, Apisum RDL1bd; experiment: as above; type: cell-based; details: GABA at EC50 (50 μM); 3 min pre-incubation; mean ± SEM
Description: as §1, §2, §5, §6

Apisum RDL2b variant 1 [5] = target: T3, Apisum RDL2b variant 1 (Acyrthosiphon pisum, UniProt A0A385J709); experiment: as above; type: cell-based; details: GABA at EC50 (30 μM); 3 min pre-incubation; mean ± SEM
Description: as §1, §2, §5, §6

Apisum RDL1ad [6] = target: T1, Apisum RDL1ad; experiment: GABA concentration response, two-electrode voltage-clamp in X. laevis oocytes; type: cell-based
Description: as §1, §2
(§7) Data are presented as mean ± SEM of individual oocytes from three or more separate frogs. The concentration of GABA required to evoke 50% of the maximum response (EC50), the concentration of fipronil required to inhibit 50% of the maximal GABA response (IC50), and the Hill coefficient (nH) were determined by non-linear regression using Graphpad Prism 5 (Graphpad Software, CA, USA). Statistical significance was determined as p < 0.05, performed using one-way ANOVA (Graphpad Software, CA, USA).

Apisum RDL1bd [7] = target: T2, Apisum RDL1bd; experiment: as above; type: cell-based
Description: as §1, §2, §7

Apisum RDL2b variant 1 [8] = target: T3, Apisum RDL2b variant 1; experiment: as above; type: cell-based
Description: as §1, §2, §7

An. gambiae RDL = tested on: An. gambiae RDL; set-up: method as in PMID 26296809; details: 100 μM; expressed in Xenopus oocytes; cited from earlier work
A. mellifera RDL = tested on: A. mellifera RDL; set-up: method as in PMID 27288983; details: 100 μM; expressed in Xenopus oocytes; cited from earlier work
[9] = tested on: cultured honey bee Kenyon cells; set-up: method as in PMID 11872245; details: cited from earlier work
[10] = 100 μM neonicotinoid, GABA at 1 mM
[11] = 100 μM neonicotinoid, GABA at EC50 concentration
[12] = initial 250 μM GABA response, eggs clamped at −60 mV, mean ± SEM

CN/C(=N\[N+](=O)[O-])NCc1cnc(Cl)s1 [CLO, clothianidin]
effect on responses induced by GABA (Apisum RDL1ad [1]; [10]): no antagonistic actions
effect on responses induced by GABA (Apisum RDL1ad [1]; [11]): no antagonistic actions
activity at 100 µM (Apisum RDL1ad [1]): 100%
effect on responses induced by GABA (Apisum RDL1bd [2]; GABA at 1 mM): no antagonistic actions
effect on responses induced by GABA (Apisum RDL1bd [2]; GABA at EC50 concentration): no antagonistic actions
% of GABA Response with 100 μM neonicotinoid (Apisum RDL1bd [2]; GABA at EC50): 100%

N#C/N=C1\SCCN1Cc1ccc(Cl)nc1 [THI, thiacloprid]
% of GABA Response with 100 μM neonicotinoid (Apisum RDL1bd [2]; GABA at EC50, 100 µM): 55 ± 7%
% of GABA Response with 100 μM neonicotinoid (Apisum RDL1bd [2]; GABA at EC50, listed as thiacloprid, 100 µM): 55%
% of GABA Response with 100 μM neonicotinoid (Apisum RDL2b var 1; GABA at EC50): 62 ± 2%
% of GABA Response with 100 μM neonicotinoid (Apisum RDL2b var 1; GABA at EC50, listed as thiacloprid): 62%

N#Cc1nn(-c2c(Cl)cc(C(F)(F)F)cc2Cl)c(N)c1[S+]([O-])C(F)(F)F (stereo not shown) [Fipronil, fipronil]
IC50 (Apisum RDL1ad [3]): 0.64 ± 0.15 µM
IC50 (Apisum RDL1bd [4]): 0.18 ± 0.06 µM
IC50 (Apisum RDL2b variant 1 [5]): 0.72 ± 0.19 µM

NCCCC(=O)O [GABA, γ-aminobutyric acid]
Imax (maximum amplitude) (Apisum RDL1ad [6]; [12]): 1.6 ± 0.6 μA
EC50 (Apisum RDL1ad [6]; mean ± SEM of 4-5 oocytes): 23 ± 1.7 µM
GABA nH (hill coefficient) (Apisum RDL1ad [6]; mean ± SEM of 4-5 oocytes): 1.6 ± 0.1
Imax (maximum amplitude) (Apisum RDL1bd [7]; [12]): 1.4 ± 1.3 μA
EC50 (Apisum RDL1bd [7]; mean ± SEM of 4-5 oocytes): 51 ± 9.2 µM
GABA nH (hill coefficient) (Apisum RDL1bd [7]; mean ± SEM of 4-5 oocytes): 2.0 ± 0.3
Imax (maximum amplitude) (Apisum RDL2b variant 1 [8]; [12]): 1.4 ± 1.5 μA
EC50 (Apisum RDL2b variant 1 [8]; mean ± SEM of 4-5 oocytes): 28 ± 5.4 µM
GABA nH (hill coefficient) (Apisum RDL2b variant 1 [8]; mean ± SEM of 4-5 oocytes): 1.0 ± 0.1

O=[N+]([O-])NC1=NCCN1Cc1ccc(Cl)nc1 [IMI, imidacloprid]
effect on responses induced by GABA (Apisum RDL1ad [1]; [10]): no detectable effect
effect on responses induced by GABA (Apisum RDL1ad [1]; [11]): no detectable effect
activity at 100 µM (Apisum RDL1ad [1]; GABA at EC50, 100 μM neonicotinoid): 100%
effect on responses induced by GABA (Apisum RDL1bd [2]; GABA at 1 mM): no detectable effect
effect on responses induced by GABA (Apisum RDL1bd [2]; GABA at EC50 concentration): no detectable effect
% of GABA Response with 100 μM neonicotinoid (Apisum RDL1bd [2]; GABA at EC50): 100%
action on RDL (An. gambiae RDL): acted as an antagonist
action on RDL (A. mellifera RDL): acted as an antagonist
effect on GABA-induced responses [9]: reduce GABA-induced responses
